Tests used:
Homo sapiens = species on record: Homo sapiens; assay: Selectivity index, ratio of EC50(app) for TBK1 in human PBMC […] in human PBMC
[1] = Inhibition of STING R232 mutant in mouse MEF cells assessed as increase in IFNbeta secretion
[2] = biological target: Stimulator of interferon genes protein (Homo sapiens, UniProt Q86WV6); assay: Induction of STING in human PBMC assessed as increase in IFNbeta secretion
[3] = biological target: T1, Serine/threonine-protein kinase TBK1 (Homo sapiens, UniProt Q9UHD2); assay: Induction of TBK1 in human PBMC assessed as increase in […]
T1 sequence (Q9UHD2 whole entry): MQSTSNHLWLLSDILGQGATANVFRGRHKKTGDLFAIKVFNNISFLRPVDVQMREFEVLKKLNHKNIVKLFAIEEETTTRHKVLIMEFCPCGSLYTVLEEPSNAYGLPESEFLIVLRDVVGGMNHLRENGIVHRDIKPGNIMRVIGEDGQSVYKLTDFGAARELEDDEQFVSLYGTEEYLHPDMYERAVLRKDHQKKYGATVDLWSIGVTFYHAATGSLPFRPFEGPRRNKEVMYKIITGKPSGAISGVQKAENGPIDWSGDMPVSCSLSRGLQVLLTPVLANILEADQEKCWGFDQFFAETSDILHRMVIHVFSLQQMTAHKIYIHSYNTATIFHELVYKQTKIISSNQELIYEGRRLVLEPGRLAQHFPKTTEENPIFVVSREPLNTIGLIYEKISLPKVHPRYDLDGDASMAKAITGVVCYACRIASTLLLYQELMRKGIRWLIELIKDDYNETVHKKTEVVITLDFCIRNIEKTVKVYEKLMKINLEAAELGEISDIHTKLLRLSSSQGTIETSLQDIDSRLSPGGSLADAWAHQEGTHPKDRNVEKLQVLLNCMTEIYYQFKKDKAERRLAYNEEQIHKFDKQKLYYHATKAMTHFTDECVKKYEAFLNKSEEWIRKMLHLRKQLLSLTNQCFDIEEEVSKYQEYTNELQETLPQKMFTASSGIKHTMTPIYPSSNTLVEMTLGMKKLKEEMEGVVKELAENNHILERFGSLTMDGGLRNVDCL

Sequence of Stimulator of interferon genes protein (Q86WV6 whole entry): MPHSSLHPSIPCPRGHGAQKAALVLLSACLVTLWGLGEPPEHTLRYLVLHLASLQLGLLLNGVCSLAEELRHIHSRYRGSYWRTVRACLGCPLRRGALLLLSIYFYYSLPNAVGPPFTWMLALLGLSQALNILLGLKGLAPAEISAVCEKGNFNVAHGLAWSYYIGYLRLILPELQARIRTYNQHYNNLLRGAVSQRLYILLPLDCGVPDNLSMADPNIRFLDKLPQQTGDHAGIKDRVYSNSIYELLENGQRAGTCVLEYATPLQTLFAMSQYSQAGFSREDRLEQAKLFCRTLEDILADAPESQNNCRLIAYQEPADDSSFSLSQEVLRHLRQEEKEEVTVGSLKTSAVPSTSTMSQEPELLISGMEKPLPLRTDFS

For `CCn1nc(C)cc1C(=O)/N=c1\[nH]c2cc(C(N)=O)ccc2n1CCCCn1/c(=N/C(=O)c2cc(C)nn2CC)[nH]c2cc(C(N)=O)ccc21`, which Ratio EC50 (Homo sapiens) is on record?
The Ratio EC50 was 18.

For `CC[C@@H]1NC(=O)[C@@H]2[C@H](Cl)[C@H](Cl)CN2C(=O)[C@H](CC)NC(=O)C[C@H](c2ccccc2)NC(=O)[C@H](CO)NC1=O`, which IC50 [1] is on record?
Its IC50 is 3.42 µM.

With `CCn1nc(C)cc1C(=O)Nc1nc2cc(C(N)=O)ccc2n1CCCCn1c(NC(=O)c2cc(C)nn2CC)nc2cc(C(N)=O)ccc21` as the compound, how does the EC50 [2] read?
Its EC50 is 3.1 µM.

What about the EC50 [3] of the same compound?
The EC50 was 53.9 µM.

Reference: ChEMBL document CHEMBL4334483, “STING modulators: Predictive significance in drug discovery” (Eur J Med Chem, 2019)
